Where two headings read alike, the source gives them in different places.
Tests used:
[1] = biological target: T1, Human recombinant PDE2A (hPDE2A) (Homo sapiens, UniProt O00408); assay: In vitro assay PDE2A (SPA, 3H-cGMP hydrolysis); type: biochemical; conditions: for IC50: read-out: hPDE2A pIC50 (converted); for Emax: read-out: hPDE2A Emax
T1 construct: His tag (inferred from metal chelate purification); made in house; host or cells: Sf9 insect cells (baculovirus)

[2] = biological target: T2, Human recombinant PDE3A (hPDE3A) (Homo sapiens, UniProt Q14432); assay: In vitro assay PDE3A (SPA, 3H-cAMP hydrolysis); type: biochemical; conditions: for IC50: hPDE3B pIC50, read-out: pIC50 (converted); for Emax: read-out: hPDE3B Emax, read-out: Emax;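 on all read-outs here: the method names PDE3A and the table heading PDE3B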
T2 construct: purchased Scottish Biomedical; host or cells: Sf9 insect cells
T2 sequence (Q14432 whole entry): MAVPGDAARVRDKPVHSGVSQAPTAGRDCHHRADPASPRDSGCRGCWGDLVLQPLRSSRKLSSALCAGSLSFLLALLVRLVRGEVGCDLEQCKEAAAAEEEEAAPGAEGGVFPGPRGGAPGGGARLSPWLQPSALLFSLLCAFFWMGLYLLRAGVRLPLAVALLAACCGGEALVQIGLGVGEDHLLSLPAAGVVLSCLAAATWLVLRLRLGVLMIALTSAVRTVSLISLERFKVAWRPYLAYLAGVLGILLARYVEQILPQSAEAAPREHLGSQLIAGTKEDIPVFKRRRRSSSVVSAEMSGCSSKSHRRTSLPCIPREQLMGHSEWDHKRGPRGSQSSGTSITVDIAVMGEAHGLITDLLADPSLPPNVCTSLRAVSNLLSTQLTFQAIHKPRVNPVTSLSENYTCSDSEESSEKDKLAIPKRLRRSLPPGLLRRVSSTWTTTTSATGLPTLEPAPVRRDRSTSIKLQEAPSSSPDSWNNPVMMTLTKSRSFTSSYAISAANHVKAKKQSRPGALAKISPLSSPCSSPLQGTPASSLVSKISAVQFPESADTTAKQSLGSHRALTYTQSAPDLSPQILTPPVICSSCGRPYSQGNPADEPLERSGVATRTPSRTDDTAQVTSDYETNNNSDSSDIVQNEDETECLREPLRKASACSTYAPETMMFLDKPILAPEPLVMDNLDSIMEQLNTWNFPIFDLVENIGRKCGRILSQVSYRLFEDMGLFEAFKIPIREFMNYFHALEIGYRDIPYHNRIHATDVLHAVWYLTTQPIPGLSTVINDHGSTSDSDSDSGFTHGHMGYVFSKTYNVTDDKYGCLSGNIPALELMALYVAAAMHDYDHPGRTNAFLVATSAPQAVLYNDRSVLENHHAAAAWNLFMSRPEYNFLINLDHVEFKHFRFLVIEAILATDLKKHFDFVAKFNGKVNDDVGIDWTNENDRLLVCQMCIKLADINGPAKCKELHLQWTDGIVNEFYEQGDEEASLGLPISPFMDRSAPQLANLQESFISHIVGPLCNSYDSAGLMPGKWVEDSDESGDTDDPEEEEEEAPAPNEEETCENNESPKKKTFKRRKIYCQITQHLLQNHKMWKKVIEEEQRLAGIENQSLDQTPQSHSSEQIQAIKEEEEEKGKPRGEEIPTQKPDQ
Procedure, shortened: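 Radiometric SPA measuring [3H]-cAMP hydrolysis (0.4 μM cAMP, 2.4 μCi/ml) over 60 min at room temperature, in Tris pH 7.8 buffer with MgCl2 and EGTA, 1% DMSO. Enzyme: recombinant human brain PDE3A expressed in Sf9 cells, used as partially purified lysate. Counts compared with enzyme-free blanks and vehicle controls.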

[3] = biological target: T3, Human recombinant PDE10A (hPDE10A) (Homo sapiens, UniProt Q9Y233); assay: In vitro assay PDE10A, human clone (SPA, 3H-cAMP hydrolysis); type: biochemical
T3 construct: His tag (inferred from metal chelate purification); made in house; host or cells: Sf9 insect cells (baculovirus)
T3 sequence (Q9Y233 267-1055): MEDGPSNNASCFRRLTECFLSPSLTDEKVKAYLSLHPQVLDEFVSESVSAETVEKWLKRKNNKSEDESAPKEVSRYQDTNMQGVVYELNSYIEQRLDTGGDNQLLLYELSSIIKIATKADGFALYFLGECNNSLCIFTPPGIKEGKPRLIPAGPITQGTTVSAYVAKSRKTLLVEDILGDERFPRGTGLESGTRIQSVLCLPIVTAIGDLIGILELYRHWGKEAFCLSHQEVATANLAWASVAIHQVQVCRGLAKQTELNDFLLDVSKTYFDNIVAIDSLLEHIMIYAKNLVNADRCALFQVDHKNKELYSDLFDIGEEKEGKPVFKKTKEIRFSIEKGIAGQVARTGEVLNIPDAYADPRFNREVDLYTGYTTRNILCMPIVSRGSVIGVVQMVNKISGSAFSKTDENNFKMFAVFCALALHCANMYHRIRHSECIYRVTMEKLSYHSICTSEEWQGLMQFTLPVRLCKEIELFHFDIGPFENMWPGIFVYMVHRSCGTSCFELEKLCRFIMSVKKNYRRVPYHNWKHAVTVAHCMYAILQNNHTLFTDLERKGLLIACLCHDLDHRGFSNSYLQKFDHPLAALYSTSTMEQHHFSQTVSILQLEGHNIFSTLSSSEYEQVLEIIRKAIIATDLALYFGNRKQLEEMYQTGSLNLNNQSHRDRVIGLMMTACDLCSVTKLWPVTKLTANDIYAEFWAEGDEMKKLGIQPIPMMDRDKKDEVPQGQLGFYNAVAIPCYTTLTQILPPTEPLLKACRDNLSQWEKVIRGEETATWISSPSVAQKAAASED
Procedure, shortened: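 Hydrolysis of 3H-cAMP (60 nM cAMP, 0.008 μCi tracer) proceeded for 60 min at room temperature, with the product detected by SPA bead scintillation counting. The enzyme was hPDE10A from baculovirus-infected Sf9 cells in Tris pH 7.8 buffer with MgCl2 and EGTA, and compounds were at 1% DMSO final. Blanks lacked enzyme.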

PDE2A = biological target: T4, PDE2A (Rattus norvegicus, UniProt Q01062); assay: PDE2 occupancy by test compounds, ex-vivo autoradiography with [3H]B-17a; type: in vivo, Male Wistar rats; conditions: for receptor occupancy at 10 mg/kg: percentage receptor occupancy, ex-vivo autoradiography, striatum; for ED50: drug dose producing 50% receptor occupancy, read-out: PDE Occupancy ED50
T4 construct: Twenty μm-thick striatal sections were cut; from tissue; host or cells: rat brain, striatal sections
T4 sequence (Q01062 1-928): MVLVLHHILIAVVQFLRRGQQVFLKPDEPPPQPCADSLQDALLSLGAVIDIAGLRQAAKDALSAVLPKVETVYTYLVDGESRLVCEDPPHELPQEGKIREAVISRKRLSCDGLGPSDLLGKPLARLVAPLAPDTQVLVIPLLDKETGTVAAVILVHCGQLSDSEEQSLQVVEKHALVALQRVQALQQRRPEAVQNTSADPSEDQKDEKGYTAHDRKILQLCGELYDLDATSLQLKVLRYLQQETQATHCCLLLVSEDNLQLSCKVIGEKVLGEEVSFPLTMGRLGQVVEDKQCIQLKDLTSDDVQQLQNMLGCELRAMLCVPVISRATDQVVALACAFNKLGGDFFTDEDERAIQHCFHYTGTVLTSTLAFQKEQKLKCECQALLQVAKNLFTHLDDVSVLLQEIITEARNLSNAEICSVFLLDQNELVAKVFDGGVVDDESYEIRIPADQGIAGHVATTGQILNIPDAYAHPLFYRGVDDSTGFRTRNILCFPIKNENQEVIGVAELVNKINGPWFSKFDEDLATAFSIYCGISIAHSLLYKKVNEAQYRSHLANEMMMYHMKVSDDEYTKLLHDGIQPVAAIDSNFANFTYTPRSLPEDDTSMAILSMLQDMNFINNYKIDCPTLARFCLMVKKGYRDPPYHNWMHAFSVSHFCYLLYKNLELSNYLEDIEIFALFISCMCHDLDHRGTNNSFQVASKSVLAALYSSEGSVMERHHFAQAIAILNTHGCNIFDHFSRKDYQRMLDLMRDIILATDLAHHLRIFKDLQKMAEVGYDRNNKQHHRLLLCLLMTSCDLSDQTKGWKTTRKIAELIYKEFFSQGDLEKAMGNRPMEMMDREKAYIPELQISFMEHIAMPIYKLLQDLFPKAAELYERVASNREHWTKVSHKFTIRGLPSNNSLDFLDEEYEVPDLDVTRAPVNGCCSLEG

[4] = human recombinant PDE2A, 10 μM cGMP substrate
[5] = human clone (h), default, read-out: hPDE10A2 Emax
[6] = human clone (h), default, read-out: hPDE10A2 pIC50 (converted)
[7] = human clone by default (no (r) mark), read-out: hPDE10A2 or rPDE10A2 Emax
[8] = human clone by default (no (r) mark), read-out: hPDE10A2 or rPDE10A2 pIC50 (converted)

T1 sequence (O00408 whole entry): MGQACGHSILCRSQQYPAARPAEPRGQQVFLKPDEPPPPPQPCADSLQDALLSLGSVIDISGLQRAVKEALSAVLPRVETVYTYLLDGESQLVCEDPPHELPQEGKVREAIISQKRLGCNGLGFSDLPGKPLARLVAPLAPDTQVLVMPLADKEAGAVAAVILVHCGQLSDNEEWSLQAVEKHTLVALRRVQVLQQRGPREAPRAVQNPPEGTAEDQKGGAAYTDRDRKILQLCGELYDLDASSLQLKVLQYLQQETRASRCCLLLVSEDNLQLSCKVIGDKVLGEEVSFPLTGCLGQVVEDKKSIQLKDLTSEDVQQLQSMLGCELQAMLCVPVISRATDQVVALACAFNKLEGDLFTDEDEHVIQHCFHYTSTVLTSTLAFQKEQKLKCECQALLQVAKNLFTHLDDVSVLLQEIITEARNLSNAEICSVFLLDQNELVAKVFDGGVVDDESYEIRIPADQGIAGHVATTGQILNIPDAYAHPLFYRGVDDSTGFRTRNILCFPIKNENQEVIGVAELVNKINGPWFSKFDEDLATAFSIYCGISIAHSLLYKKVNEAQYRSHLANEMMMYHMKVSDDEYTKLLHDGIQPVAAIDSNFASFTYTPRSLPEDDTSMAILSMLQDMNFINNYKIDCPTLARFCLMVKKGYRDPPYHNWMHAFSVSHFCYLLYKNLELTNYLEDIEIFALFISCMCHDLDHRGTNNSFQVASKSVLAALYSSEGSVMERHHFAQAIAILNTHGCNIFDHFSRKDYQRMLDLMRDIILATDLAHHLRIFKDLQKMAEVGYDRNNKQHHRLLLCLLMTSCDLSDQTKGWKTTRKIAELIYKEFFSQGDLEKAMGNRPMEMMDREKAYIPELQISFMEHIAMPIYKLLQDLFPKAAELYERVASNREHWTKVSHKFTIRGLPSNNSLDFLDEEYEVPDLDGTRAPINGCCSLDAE

| IC50 [1, 4] | Emax ([1]; human recombinant PDE2A) | Emax [3, 5] | IC50 [3, 6] | receptor occupancy at 10 mg/kg (PDE2A; sc, route SC (subcutaneous)) | receptor occupancy at 10 mg/kg (PDE2A; po, route PO (oral)) | ED50 (PDE2A; route PO (oral)) | SMILES | Emax [1] | IC50 [1] | IC50 [2] | Emax [2] | Emax [3, 7] | IC50 [3, 8] | receptor occupancy at 10 mg/kg (PDE2A; route SC (subcutaneous)) | receptor occupancy at 10 mg/kg (PDE2A; route PO (oral)) |
| --- | --- | --- | --- | --- | --- | --- | --- | --- | --- | --- | --- | --- | --- | --- | --- |
| 2.19 nM | 101% | 98% | 45.7 nM | 18% | – | – | C[C@@H]1CCN(C(=O)c2ccc3scnc3c2)C[C@H]1c1cc(C(F)F)nc2ncnn12 [Compound 227] | 101% | 2.19 nM | 0.38 µM | 95% | 98% | 45.7 nM | – | – |
| 1.35 nM | 97% | 100% | 19.5 nM | -13% | – | – | C[C@@H]1CCN(C(=O)c2ccc(O)c(C#N)c2)C[C@H]1c1cc(C(F)F)nc2ncnn12 [Compound 231] | 97% | 1.35 nM | 9.12 µM | 57% | 100% | 19.5 nM | – | – |
| – | – | 99% | 11.2 nM | – | 59% | 11 mg/kg | COc1cccc2c1OCC(C(=O)N1CC[C@@H](C)[C@H](c3cc(C(F)F)nc4ncnn34)C1)=C2 [Compound 267] | 102% | 0.398 nM | 0.0617 µM | 100% | 99% | 11.2 nM | – | – |
| – | – | 93% | 692 nM | – | 22% | 24.2 mg/kg | C[C@@H]1CCN(C(=O)c2cc(C3CC3)ncc2F)C[C@H]1c1cc(C(F)F)nc2ncnn12 [Compound 269] | 101% | 0.708 nM | 3.72 µM | 78% | 93% | 692 nM | – | – |
| – | – | 93% | 794 nM | – | 3% | – | COc1ncc(C)cc1C(=O)N1CC[C@@H](C)[C@H](c2cc(C(F)F)nc3ncnn23)C1 [Compound 272] | 102% | 2.19 nM | 8.91 µM | 54% | 93% | 794 nM | – | – |
| – | – | – | – | – | 23% | – | Cc1cc(C(=O)N2CC[C@@H](C)[C@H](c3cc(C)nc4ncnn34)C2)cc(OC(F)F)n1 [Compound 275] | 100% | 2.82 nM | 0.977 µM | 92% | 100% | 28.8 nM | – | – |
| – | – | – | – | – | -4% | – | C[C@@H]1CCN(C(=O)c2cc(C3CC3)ncc2F)C[C@@]1(F)c1cc(C(F)F)nc2ncnn12 [Compound 277] | 99% | 75.9 nM | > 10 µM | 14% | 27% | > 10000 nM | – | – |
| – | – | – | – | – | 30% | – | Cc1cc(C(=O)N2CC[C@@H](C)[C@H](c3cc(C(F)F)nc4ncnn34)C2)c(F)c(C2CC2)n1 [Compound 278] | 99% | 0.933 nM | 0.708 µM | 97% | 99% | 145 nM | – | – |
| – | – | – | – | – | -12% | – | Cc1cc([C@@H]2CN(C(=O)c3cc(C4CC4)ncc3C(F)(F)F)CC[C@H]2C)n2ncnc2n1 [Compound 283] | 100% | 8.51 nM | > 10 µM | 38% | 98% | 178 nM | – | – |
| – | – | – | – | – | 16% | – | COc1cc(C(=O)N2CC[C@@H](C)[C@H](c3cc(C(F)F)nc4ncnn34)C2)cc(OC)n1 [Compound 284] | 101% | 1.7 nM | 1.26 µM | 89% | 98% | 55 nM | – | – |
| – | – | – | – | – | – | – | Cc1cc(C(=O)N2[C@H]3CC[C@H](c4cc(C(F)F)nc5ncnn45)[C@@H]2CC3)cc(C(F)(F)F)n1 [Compound 286] | 101% | 6.92 nM | > 10 µM | 14% | 79% | 2240 nM | – | 5% |
| – | – | – | – | – | – | – | COc1cc(C(=O)N2[C@H]3CC[C@H](c4cc(C(F)F)nc5ncnn45)[C@@H]2CC3)cc(C)n1 [Compound 290] | 98% | 5.89 nM | 6.92 µM | 53% | 89% | 1410 nM | – | -3% |
| – | – | – | – | – | – | – | O=C(c1ccc2cccn2c1)N1[C@H]2CC[C@H](c3cc(C(F)F)nc4ncnn34)[C@@H]1CC2 [Compound 291] | 101% | 2.69 nM | 2.63 µM | 86% | 95% | 513 nM | – | 38% |
| – | – | – | – | – | – | – | COc1c(C)cc(C(=O)N2[C@H]3CC[C@H](c4cc(C(F)F)nc5ncnn45)[C@@H]2CC3)cc1C [Compound 292] | 100% | 2.51 nM | 4.68 µM | 73% | 94% | 724 nM | – | 23% |
| – | – | – | – | – | – | – | Cc1cc(C(=O)N2[C@H]3CC[C@H](c4cc(C(F)F)nc5ncnn45)[C@@H]2CC3)cc(OC(F)F)n1 [Compound 293] | 100% | 11.2 nM | 3.47 µM | 80% | 90% | 1020 nM | – | 6% |
| – | – | – | – | – | – | – | Cc1cc(C(=O)N2[C@H]3CC[C@H](c4cc(C(F)F)nc5ncnn45)[C@@H]2CC3)cc(C(F)F)n1 [Compound 294] | 99% | 10.7 nM | > 10 µM | 14% | 81% | 2090 nM | – | 17% |
| – | – | – | – | – | – | – | COc1cccc2c1OCC(C(=O)N1[C@H]3CC[C@H](c4cc(C(F)F)nc5ncnn45)[C@@H]1CC3)=C2 [Compound 296] | 99% | 0.457 nM | 0.794 µM | 93% | 100% | 120 nM | – | 88% |
| – | – | – | – | – | – | – | Cn1cc(C(=O)N2[C@H]3CC[C@H](c4cc(C(F)F)nc5ncnn45)[C@@H]2CC3)c2ccccc21 [Compound 297] | 97% | 2.34 nM | 5.89 µM | 62% | 96% | 589 nM | – | -2% |
| – | – | – | – | – | – | – | Cc1cc(C(=O)N2[C@H]3CC[C@H](c4cc(C(F)F)nc5ncnn45)[C@@H]2CC3)cc(C)c1C#N [Compound 299] | 99% | 7.76 nM | > 10 µM | 40% | 84% | 2140 nM | – | 31% |
| – | – | – | – | – | – | – | Cn1c(C(=O)N2[C@H]3CC[C@H](c4cc(C(F)F)nc5ncnn45)[C@@H]2CC3)cc2ccccc21 [Compound 300] | 100% | 6.46 nM | 2 µM | 88% | 80% | 2880 nM | – | -11% |

| SMILES | IC50 [1, 4] | Emax ([1]; human recombinant PDE2A) | Emax [3, 5] | IC50 [3, 6] | receptor occupancy at 10 mg/kg (PDE2A; sc, route SC (subcutaneous)) | receptor occupancy at 10 mg/kg (PDE2A; po, route PO (oral)) | ED50 (PDE2A; route PO (oral)) | Emax [1] | IC50 [1] | IC50 [2] | Emax [2] | Emax [3, 7] | IC50 [3, 8] | receptor occupancy at 10 mg/kg (PDE2A; route SC (subcutaneous)) | receptor occupancy at 10 mg/kg (PDE2A; route PO (oral)) |
| --- | --- | --- | --- | --- | --- | --- | --- | --- | --- | --- | --- | --- | --- | --- | --- |
| Cc1c(C(=O)N2[C@H]3CC[C@H](c4cc(C(F)F)nc5ncnn45)[C@@H]2CC3)oc2ccccc12 [Compound 273] | – | – | 96% | 977 nM | – | – | – | 100% | 2.34 nM | 0.813 µM | 96% | 96% | 977 nM | 65% | – |

— patent publication US10947242B2, “[1,2,4]triazolo[1,5and#8208;A]pyrimidine compounds as PDE2 inhibitors” (Janssen Pharmaceutica NV, priority 2016, dated 2021)
